From patent US20060134197A1, “Method of reducing unpleasant taste and/or unpleasant odor” (priority 2002, published 2006)

Legend:
[1] = Panel test of lowering iron taste and/or smell of aqueous bivalent iron ion solution; set-up: key to Effect on lowering iron taste and/or smell: “Not effective (symbol “−”)” meaning of that the test aqueous solution showed no difference in iron taste and/or smell from that the control aqueous solution; “Slightly effective (symbol “+”)”, the test aqueous solution showes weaker iron taste and/or smell than the control aqueous solution but the deference was not significant; “Effective (symbol “++”)”, the test aqueous solution showed a slight iron taste and/or smell but it was significantly weaker than that of the control aqueous solution; “Strongly effective (symbol “+++”)”, the test aqueous solution showed almost no iron taste and/or smell; conditions: for Effect on lowering iron taste and/or smell: 5 mg bivalent iron per 100 ml, 12 panels
Description: To confirm the effect of various saccharides on inhibiting taste and/or smell of bivalent iron ion, the following experiment was carried out. An aqueous solution containing bivalent iron ion was prepared by dissolving 0.05556 part by weight of ammonium ferric citrate (iron content of about 18%), and 0.1 part by weight of ascorbic acid in 100 parts by weight of deionized water. Test aqueous solutions containing 5 mg of bivalent iron per 100 ml of water and 0.5, 1.0, 1.5, 2.0 or 5.0% of saccharide selected from sucrose, maltose (hydrous crystalline maltose commercialized by Hayashibara Biochemical Laboratories, Inc., Okayama, Japan, purify 99.0% or more), α,α-trehalose (hydrous crystalline α,α-trehalose commercialized by Hayashibara Biochemical Laboratories, Inc., Okayama, Japan, purity 99.0% or more), α-glucosyl α,α-trehalose (hydrous crystalline α-glucosyl α,α-trehalose prepared in Experiment B-1 of Japanese Patent Publication (Kokai) No. 291,986/1995, purity 99.0% or more), and […] (powdery α-maltosyl α,α-trehalose prepared in Example 5 described following, purity 98.1%) were prepared by admixing the above aqueous solution containing bivalent iron with an equal volume of a pre-prepared aqueous solution containing any one of the above saccharides at a concentration of 1.0, 2.0, 3.0, 4.0 or 10.0%, on a dry solid basis. As a control, an aqueous solution was prepared by admixing the aqueous solution containing bivalent iron ion with an equal volume of warter instead of the aqueous saccharide solution.
The effect on lowering iron taste and/or smell, namely unpleasant taste and/or smell of iron ion existing in a test aqueous solution at a concentration of 5 mg per 100 ml was judged by a panel test using 12 panels. […] In the judgement for each test aqueous solution, ten or more of 12 panels answered the same judgement.

[2] = Inhibiting the production of hydrogen sulfide from L-cysteine due to heat-decomposition; conditions: 2.5 g L-cysteine hydrochloride and 5 g saccharide in 50 ml; 80° C. for 15 minutes; 100 minus relative value, control defined as 100
From the text: Two and half grams of precisely weighted L-cysteine hydrochloride (special reagent grade) and on a dry solid basis 5 g of a precisely measured saccharide sample; i.e. hydrous crystalline α,α-trehalose (reagent grade, purity 99.0% or more, commercialized by Hayashibara Biochemical Laboratories, Inc., Okayama, Japan), α-maltosyl α,α-trehalose prepared in the following Example 5 (purity 98.1%), or a reagent grade maltotetraose (purity 97.0% or more, commercialized by Hayashibara Biochemical Laboratories, Inc., Okayama, Japan); were placed in a 50-ml volume measuring flask and dissolved in deionized water to give a final volume of 50 ml. As a control, 2.5 g of precisely measured L-cysteine hydrochloride (special reagent grade) was dissolved in deionized water to give a final volume of 50 ml. Five ml of each sample was place into a 20-ml volume vial, sealed with a butyl gum cap, and kept at 80° C. for 15 minutes in an incubator. Hydrogen sulfide contained in 10 ml of the resulting headspace gas was measured by “GASTECH No. 4 LT”, a hydrogen sulfide detector commercialized by GL Science Corporation, under an aspiration time of one minute. The resulting value of the production of hydrogen sulfide of each test sample was compared with the value of control defined as 100 to calculate the relative value of the production of hydrogen sulfide. And then, the relative rate of inhibiting the production of hydrogen sulfide was calculated by 100 minus the relative value.

[3] = Water solubility and hygroscopicity of the agents; assay type: physicochemical

Hygroscopicity [3] | Solubility in water [3] | Structure (SMILES) | Effect on lowering iron taste and/or smell ([1]; saccharide 0.5%) | Effect on lowering iron taste and/or smell ([1]; saccharide 1.0%) | Effect on lowering iron taste and/or smell ([1]; saccharide 1.5%) | Effect on lowering iron taste and/or smell ([1]; saccharide 2.0%) | Effect on lowering iron taste and/or smell ([1]; saccharide 5.0%) | Concentration effective on lowering unpleasant taste and/or smell of aqueous iron ion solution ([1]; to the total weight of the aqueous solution, dry solid basis) [%] | Relative rate of inhibiting the production of hydrogen sulfide [2]
 |  | OC[C@H]1O[C@H](O[C@H]2[C@H](O)[C@@H](O)C(O)O[C@@H]2CO)[C@H](O)[C@@H](O)[C@@H]1O (mixture of isomers) [Maltose, maltose] | − | − | − | + | + | ≥ 2 | 
 |  | OC[C@H]1O[C@H](O[C@H]2O[C@H](CO)[C@@H](O[C@H]3O[C@H](CO)[C@@H](O)[C@H](O)[C@H]3O)[C@H](O)[C@H]2O)[C@H](O)[C@@H](O)[C@@H]1O [α-Glucosyl α,α-trehalose, α-glucosyl α,α-trehalose] | − | + | ++ | ++ | +++ |  | 
 |  | OC[C@H]1O[C@H](O[C@H]2[C@H](O)[C@@H](O)[C@@H](O[C@H]3[C@H](O)[C@@H](O)[C@@H](O[C@H]4[C@H](O)[C@@H](O)C(O)O[C@@H]4CO)O[C@@H]3CO)O[C@@H]2CO)[C@H](O)[C@@H](O)[C@@H]1O (some centres unmarked) [Maltotetraose, maltotetraose] |  |  |  |  |  |  | 12
low hygroscopicity | satisfactory solubility in water | OC[C@H]1O[C@H](O[C@H]2O[C@H](CO)[C@@H](O[C@H]3O[C@H](CO)[C@@H](O[C@H]4O[C@H](CO)[C@@H](O)[C@H](O)[C@H]4O)[C@H](O)[C@H]3O)[C@H](O)[C@H]2O)[C@H](O)[C@@H](O)[C@@H]1O [α-Maltosyl α,α-trehalose, α-maltosyl α,α-trehalose] | − | + | ++ | ++ | +++ |  | 36
